Literature values in patent publication US20070010584A1, “Compositions and methods for orthostatic intolerance” (priority 2003, published 2007).
Like-named read-outs stand apart in the source and are kept apart here.

Key:
[1] = system: patients with OI and orthostatic tachycardia; conditions: in vivo
[2] = system: patients with OI
[3] = in vivo
[4] = clonidine 0.1 mg PO, 13 patients with OI

## CC(C)NCC(O)COc1cccc2ccccc12 (stereo not drawn) [Propranolol]
[1]
  efficacy in OI and orthostatic tachycardia: effective in a number of patients

## COc1ccc(OC)c(C(O)CNC(=O)CN)c1 (stereo not drawn) [Midodrine]
[2]; midodrine 5-10 mg PO, 13 patients with OI
  supine and standing heart rate: decreased both supine and standing heart rate
[3]
  half-life: 30 min

## N[C@H](C(=O)O)[C@H](O)c1ccc(O)c(O)c1 [DOPS, Threo-3-(3,4-dihydroxyphenyl)serine]
After ingestion of DOPS
  time of peak NE levels: about 5 hours
After oral administration of DOPS
  duration of increased plasma levels of DOPS and NE: at least 12 hours
After oral ingestion
  time of peak plasma levels of DOPS: about 3 hours

## Clc1cccc(Cl)c1N=C1NCCN1 [clonidine]
[2]; clonidine 0.1 mg PO
  tolerability in OI patients: tolerate clonidine poorly
[2]; [4]
  blood pressure: significantly decreased blood pressure
  supine and standing heart rate: decreased both supine and standing heart rate
